According to PubChem BioAssay AID488994 (Sanford-Burnham Center for Chemical Genomics, 2010):
The source made the active and inactive calls.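 The calls were made as follows: active = IC50 below 20 µM in the dose response test; inactive = the rest.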

Target: Type-1 angiotensin II receptor (Homo sapiens) (UniProt P30556)
Assay: AT1 receptor antagonists, beta-arrestin recruitment, SAR follow-up, selectivity assay for APJ antagonist project, cell-based, CHO-K1 PathHunter, luminescence, set 2 (AID 488994)
Conditions: CHO-K1 AGTR1 PathHunter beta-arrestin

Type-1 angiotensin II receptor (Homo sapiens), sequence (P30556 whole entry, looked up): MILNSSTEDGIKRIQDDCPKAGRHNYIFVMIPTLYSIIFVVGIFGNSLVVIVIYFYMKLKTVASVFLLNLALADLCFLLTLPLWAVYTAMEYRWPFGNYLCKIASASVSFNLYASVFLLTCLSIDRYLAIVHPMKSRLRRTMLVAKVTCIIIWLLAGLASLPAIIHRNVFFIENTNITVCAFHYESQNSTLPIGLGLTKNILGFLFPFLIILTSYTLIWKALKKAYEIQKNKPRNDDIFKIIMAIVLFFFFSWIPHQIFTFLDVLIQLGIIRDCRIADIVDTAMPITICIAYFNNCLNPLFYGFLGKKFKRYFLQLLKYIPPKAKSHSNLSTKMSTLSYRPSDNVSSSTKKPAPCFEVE

| IC50 | SMILES |
| --- | --- |
| > 79 µM (inactive) | Cc1ccnc(SCc2cc(=O)c(OCc3ccc(Cl)c([N+](=O)[O-])c3)co2)n1 |
| > 79 µM (inactive) | CC(=O)Oc1coc(CSc2nccc(C)n2)cc1=O |
| > 79 µM (inactive) | COc1cc(CSc2nc(C)cc(C)n2)ccc1OC(=O)c1ccc([N+](=O)[O-])cc1 |
| > 79 µM (inactive) | COc1cc(CSc2nc(C)cc(C)n2)ccc1OC(=O)c1cccnc1 |
| > 79 µM (inactive) | Cc1ccnc(SCc2cc(=O)c(OC(=O)C(C)(C)C)co2)n1 |
| > 79 µM (inactive) | Cc1ccnc(SCc2cc(=O)c(OC(=O)c3ccno3)co2)n1 |
| > 79 µM (inactive) | Cc1ccnc(SCc2cc(=O)c(OC(=O)c3ccc([N+](=O)[O-])o3)co2)n1 |
| > 79 µM (inactive) | O=C(Nc1ccc(CSc2ncccn2)cc1)c1ccccc1 |
| > 79 µM (inactive) | Cc1ccnc(SCc2cc(=O)c(OC(=O)C(C)C)co2)n1 |
| > 79 µM (inactive) | COc1cc(CSc2nc(C)cc(C)n2)ccc1OC(=O)c1ccccc1 |
